In ChEMBL document CHEMBL3804830, “Efficient synthesis of new antiproliferative steroidal hybrids using the molecular hybridization approach” (Eur J Med Chem, 2016):

Legend:
[1] = Antiproliferative activity against human EC109 cells assessed as cell growth inhibition after 72 hrs by MTT assay; type: functional, cell-based; conditions: ECa-109, 72 h
SH-SY5Y = assay: Antiproliferative activity against human SH-SY5Y cells assessed as cell growth inhibition after 72 hrs by MTT assay; type: functional, cell-based
[2] = Antiproliferative activity against human MGC803 cells assessed as cell growth inhibition after 72 hrs by MTT assay; type: functional, cell-based; conditions: MGC-803, 72 h
[3] = Antiproliferative activity against human U87 cells assessed as cell growth inhibition after 72 hrs by MTT assay; type: functional, cell-based, U-87MG ATCC; conditions: U-87 MG
MCF7 = assay: cells; conditions: Homo sapiens, MCF7, 72 h
Description: Antiproliferative activity against human MCF7 cells assessed as cell growth inhibition after 72 hrs by MTT assay

| Compound | IC50 [1] | IC50 (SH-SY5Y) | IC50 [2] | IC50 [3] | IC50 (MCF7) |
| --- | --- | --- | --- | --- | --- |
| COc1ccc(NCc2cn(CC(=O)O[C@H]3CC[C@@]4(C)C(=CC[C@@H]5[C@@H]4CC[C@]4(C)C(=O)CC[C@@H]54)C3)nn2)cc1 | 24.7 µM | 69.8 µM | 11.6 µM | 96.5 µM | 21.3 µM |
| C[C@]12CC[C@H](OC(=O)Cn3cc(COc4ccccc4[N+](=O)[O-])nn3)CC1=CC[C@@H]1[C@@H]2CC[C@]2(C)C(=O)CC[C@@H]12 | 49.8 µM | 65 µM | 51.3 µM | > 128 µM | 45.1 µM |
| C[C@]12CC[C@H](OC(=O)Cn3cc(CN4C(=O)C(=O)c5cccc(Cl)c54)nn3)CC1=CC[C@@H]1[C@@H]2CC[C@]2(C)C(=O)CC[C@@H]12 | 84.6 µM | 14.6 µM | 8.74 µM | 20.8 µM | 13.3 µM |
| C[C@]12CC[C@H](OC(=O)Cn3cc(Cn4cc(F)c(=O)n(Cc5cn(CC(=O)O[C@H]6CC[C@@]7(C)C(=CC[C@@H]8[C@@H]7CC[C@]7(C)C(=O)CC[C@@H]87)C6)nn5)c4=O)nn3)CC1=CC[C@@H]1[C@@H]2CC[C@]2(C)C(=O)CC[C@@H]12 | > 128 µM | > 128 µM | > 128 µM | > 128 µM | > 128 µM |
| C[C@]12CC[C@H](OC(=O)Cn3cc(CN4C(=O)C(=O)c5c(Br)cccc54)nn3)CC1=CC[C@@H]1[C@@H]2CC[C@]2(C)C(=O)CC[C@@H]12 | 78.4 µM | > 128 µM | 26.4 µM | 21.3 µM | > 128 µM |
| C[C@]12CC[C@H](OC(=O)Cn3cc(COc4ccc(C(=O)/C=C/c5ccc(F)c(F)c5)cc4)nn3)CC1=CC[C@@H]1[C@@H]2CC[C@]2(C)C(=O)CC[C@@H]12 | > 128 µM | 42.1 µM | > 128 µM | > 128 µM | 92.6 µM |
| Cc1ccc(OCc2cn(CC(=O)O[C@H]3CC[C@@]4(C)C(=CC[C@@H]5[C@@H]4CC[C@]4(C)C(=O)CC[C@@H]54)C3)nn2)cc1 | 23.9 µM | 26.9 µM | 21.6 µM | 18.5 µM | 38.6 µM |
